Common to all, as to type: binding
In test [1] the test system is human monoclonal antibody CR57.
Test [2] concerns human monoclonal antibody CRJB.
Test [3] relates to human monoclonal antibody CR57. This is another data set of the same source.
In test [4] the test system is human monoclonal antibody CRJA.
Test [5] relates to human monoclonal antibody CRJB. The source holds these as a separate data set.
Test [6] relates to human monoclonal antibody CRJA. The source holds these as a separate data set.

The values below come from patent US20060263802A1 (priority 2003, published 2006).

For the sequence DPYDRSLHSRVFPSG, in test [1], the “Binding of CR57 (10 μg/ml) to looped/cyclic peptide (PEPSCAN-ELISA signal)” value is reported as 106. The “Binding of CRJB (10 μg/ml) to looped/cyclic peptide (PEPSCAN-ELISA signal)” value in test [2] came out at 71. The “Binding of CR57 to linear peptide (PEPSCAN-ELISA signal)” value (from here on “Binding of CR57 to linear peptide”) in test [3] is given as 90. Further, in test [4], the “Binding of CRJA (10 μg/ml) to looped/cyclic peptide (PEPSCAN-ELISA signal)” value is reported as 186 and the “binding of antibody CRJA to looped/cyclic peptide (PEPSCAN OD)” value was “clearly bound”. The “Binding of CRJB to linear peptide (PEPSCAN-ELISA signal)” value (“Binding of CRJB to linear peptide” below) in test [5] worked out at 120. In test [6], the “Binding of CRJA to linear peptide (PEPSCAN-ELISA signal)” value (shortened to “Binding of CRJA to linear peptide”) was 92.
For HNQVSGVDLGLPNWG, the “Binding of CR57 to looped/cyclic peptide (PEPSCAN-ELISA signal)” value (“Binding of CR57 to looped/cyclic peptide” for short) in test [1] worked out at 78. In test [2], the “Binding of CRJB to looped/cyclic peptide (PEPSCAN-ELISA signal)” value (shortened to “Binding of CRJB to looped/cyclic peptide”) is 100. Further, the “Binding of human monoclonal antibody CR57 to linear peptide (PEPSCAN-ELISA signal)” value in test [3] came to 76. Besides, in test [4], the “Binding of CRJA to looped/cyclic peptide (PEPSCAN-ELISA signal)” value (“Binding of CRJA to looped/cyclic peptide” below) was 55. The “Binding of human monoclonal antibody CRJB to linear peptide (PEPSCAN-ELISA signal)” value in test [5] amounted to 106. The “Binding of human monoclonal antibody CRJA to linear peptide (PEPSCAN-ELISA signal)” value in test [6] turned out to be 66.
Take VEVHLPDVHNQVSGV: in test [1], the “Binding of CR57 to looped/cyclic peptide” value is 138. Further, the “Binding of CRJB to looped/cyclic peptide” value in test [2] was found to be 104. For the same sequence, in test [3], the “Binding of human monoclonal antibody CR57 to linear peptide (PEPSCAN-ELISA signal)” value amounted to 106. Moreover, the “Binding of CRJA to looped/cyclic peptide” value in test [4] stood at 120. Also, the “Binding of human monoclonal antibody CRJB to linear peptide (PEPSCAN-ELISA signal)” value in test [5] was 141. In addition, the “Binding of human monoclonal antibody CRJA to linear peptide (PEPSCAN-ELISA signal)” value in test [6] turned out to be 117.
As for ISPSVADLDPYDRSL, the “Binding of CR57 (10 μg/ml) to looped/cyclic peptide (PEPSCAN-ELISA signal)” value in test [1] is listed as 66. Also, the “Binding of CRJB (10 μg/ml) to looped/cyclic peptide (PEPSCAN-ELISA signal)” value in test [2] came out at 64. The “Binding of CR57 to linear peptide” value in test [3] was 50. Further, the “Binding of CRJA (10 μg/ml) to looped/cyclic peptide (PEPSCAN-ELISA signal)” value in test [4] was found to be 46. Besides, the “Binding of CRJB to linear peptide” value in test [5] is given as 119. Further, in test [6], the “Binding of CRJA to linear peptide” value is listed as 56.
Turning to GCLRVGGRCHPHVNG, in test [1], the “Binding of CR57 (10 μg/ml) to looped/cyclic peptide (PEPSCAN-ELISA)” value is given as 103. Besides, the “Binding of CRJB (10 μg/ml) to looped/cyclic peptide (PEPSCAN-ELISA)” value in test [2] amounted to 112. In addition, the “Binding of CR57 to linear peptide” value in test [3] is recorded as 85. For the same sequence, the “Binding of CRJA (10 μg/ml) to looped/cyclic peptide (PEPSCAN-ELISA)” value in test [4] was determined as 105. For the same sequence, the “Binding of CRJB to linear peptide” value in test [5] was 125. In addition, the “Binding of CRJA to linear peptide” value in test [6] worked out at 98.
Take WKMAGDPRYEESLHN: in test [1], the “Binding of CR57 (10 μg/ml) to looped/cyclic peptide (PEPSCAN-ELISA signal)” value is given as 96. Further, the “Binding of CRJB (10 μg/ml) to looped/cyclic peptide (PEPSCAN-ELISA signal)” value in test [2] came out at 77. Also, in test [3], the “Binding of CR57 to linear peptide” value turned out to be 69. Besides, the “Binding of CRJA (10 μg/ml) to looped/cyclic peptide (PEPSCAN-ELISA signal)” value in test [4] is 90. Besides, the “Binding of CRJB to linear peptide” value in test [5] is recorded as 101. The “Binding of CRJA to linear peptide” value in test [6] is 86.
With AGDPRYEESLHNPYP, the “Binding of CR57 (10 μg/ml) to looped/cyclic peptide (PEPSCAN-ELISA signal)” value in test [1] is reported as 64. In addition, the “Binding of CRJB (10 μg/ml) to looped/cyclic peptide (PEPSCAN-ELISA signal)” value in test [2] is 54. Also, in test [3], the “Binding of CR57 to linear peptide” value came to 40. In test [4], the “Binding of CRJA (10 μg/ml) to looped/cyclic peptide (PEPSCAN-ELISA signal)” value was 58. The “Binding of CRJB to linear peptide” value in test [5] is listed as 101. Besides, the “Binding of CRJA to linear peptide” value in test [6] came to 83.
On to RLMDGTWVAMQTSNE, for which the “Binding of CR57 (10 μg/ml) to looped/cyclic peptide (PEPSCAN-ELISA)” value in test [1] is on record as 96. Also, the “Binding of CRJB (10 μg/ml) to looped/cyclic peptide (PEPSCAN-ELISA)” value in test [2] is given as 89. Also, the “Binding of CR57 to linear peptide” value in test [3] was 100. Moreover, the “Binding of CRJA (10 μg/ml) to looped/cyclic peptide (PEPSCAN-ELISA)” value in test [4] is given as 82. Moreover, the “Binding of CRJB to linear peptide” value in test [5] worked out at 113. Further, the “Binding of CRJA to linear peptide” value in test [6] is reported as 99.
As to EECLDALESIMTTKS, in test [1], the “Binding of CR57 (10 μg/ml) to looped/cyclic peptide (PEPSCAN-ELISA)” value is listed as 105. Also, the “Binding of CRJB (10 μg/ml) to looped/cyclic peptide (PEPSCAN-ELISA)” value in test [2] worked out at 70. Moreover, in test [3], the “Binding of CR57 to linear peptide” value is 82. Also, in test [4], the “Binding of CRJA (10 μg/ml) to looped/cyclic peptide (PEPSCAN-ELISA)” value came to 105. For the same sequence, in test [5], the “Binding of CRJB to linear peptide” value was found to be 120. For the same sequence, the “Binding of CRJA to linear peptide” value in test [6] stood at 98.
Take HLPDVHNQVSGVDLG: the “Binding of CR57 to looped/cyclic peptide” value in test [1] came out at 119. In addition, the “Binding of CRJB to looped/cyclic peptide” value in test [2] was 93. Also, the “Binding of human monoclonal antibody CR57 to linear peptide (PEPSCAN-ELISA signal)” value in test [3] was 104. Also, the “Binding of CRJA to looped/cyclic peptide” value in test [4] is 87. The “Binding of human monoclonal antibody CRJB to linear peptide (PEPSCAN-ELISA signal)” value in test [5] was 150. The “Binding of human monoclonal antibody CRJA to linear peptide (PEPSCAN-ELISA signal)” value in test [6] stood at 96.
As to MQTSNETKWCPPDQL, the “Binding of CR57 (10 μg/ml) to looped/cyclic peptide (PEPSCAN-ELISA)” value in test [1] came out at 138. Further, the “Binding of CRJB (10 μg/ml) to looped/cyclic peptide (PEPSCAN-ELISA)” value in test [2] is recorded as 33. Further, in test [3], the “Binding of CR57 to linear peptide” value was determined as 104. In test [4], the “Binding of CRJA (10 μg/ml) to looped/cyclic peptide (PEPSCAN-ELISA)” value is recorded as 74. Also, the “Binding of CRJB to linear peptide” value in test [5] turned out to be 132. Also, in test [6], the “Binding of CRJA to linear peptide” value worked out at 112.
Turning to RCHPHVNGVFFNGII, the “Binding of CR57 (10 μg/ml) to looped/cyclic peptide (PEPSCAN-ELISA)” value in test [1] is recorded as 104. For the same sequence, the “Binding of CRJB (10 μg/ml) to looped/cyclic peptide (PEPSCAN-ELISA)” value in test [2] is on record as 100. In test [3], the “Binding of CR57 to linear peptide” value turned out to be 98. The “Binding of CRJA (10 μg/ml) to looped/cyclic peptide (PEPSCAN-ELISA)” value in test [4] was 106. The “Binding of CRJB to linear peptide” value in test [5] was 141. Moreover, the “Binding of CRJA to linear peptide” value in test [6] is listed as 108.
With ASKGSETCGFVDERG, the “Binding of CR57 (10 μg/ml) to looped/cyclic peptide (PEPSCAN-ELISA)” value in test [1] amounted to 96. Also, the “Binding of CRJB (10 μg/ml) to looped/cyclic peptide (PEPSCAN-ELISA)” value in test [2] is given as 94. Further, the “Binding of CR57 to linear peptide” value in test [3] was determined as 97. Besides, in test [4], the “Binding of CRJA (10 μg/ml) to looped/cyclic peptide (PEPSCAN-ELISA)” value was 120. Besides, the “Binding of CRJB to linear peptide” value in test [5] is 108. Besides, the “Binding of CRJA to linear peptide” value in test [6] turned out to be 106.
As for WNEILPSKGCLRVGG, the “Binding of CR57 (10 μg/ml) to looped/cyclic peptide (PEPSCAN-ELISA)” value in test [1] worked out at 112. Moreover, the “Binding of CRJB (10 μg/ml) to looped/cyclic peptide (PEPSCAN-ELISA)” value in test [2] was found to be 98. Also, in test [3], the “Binding of CR57 to linear peptide” value is recorded as 102. In addition, the “Binding of CRJA (10 μg/ml) to looped/cyclic peptide (PEPSCAN-ELISA)” value in test [4] was found to be 96. For the same sequence, the “Binding of CRJB to linear peptide” value in test [5] is 136. For the same sequence, in test [6], the “Binding of CRJA to linear peptide” value is on record as 98.
In the case of PNNLVVEDEGCTNLS, the “Binding of CR57 (10 μg/ml) to looped/cyclic peptide (PEPSCAN-ELISA signal)” value in test [1] is reported as 100. In addition, in test [2], the “Binding of CRJB (10 μg/ml) to looped/cyclic peptide (PEPSCAN-ELISA signal)” value was found to be 60. Also, in test [3], the “Binding of CR57 to linear peptide” value is 78. In test [4], the “Binding of CRJA (10 μg/ml) to looped/cyclic peptide (PEPSCAN-ELISA signal)” value was 96. Moreover, in test [5], the “Binding of CRJB to linear peptide” value is recorded as 107. In test [6], the “Binding of CRJA to linear peptide” value worked out at 86.
With RPTPDACRAAYNWKM, the “Binding of CR57 (10 μg/ml) to looped/cyclic peptide (PEPSCAN-ELISA signal)” value in test [1] was found to be 76. In test [2], the “Binding of CRJB (10 μg/ml) to looped/cyclic peptide (PEPSCAN-ELISA signal)” value is reported as 51. In test [3], the “Binding of CR57 to linear peptide” value came to 77. The “Binding of CRJA (10 μg/ml) to looped/cyclic peptide (PEPSCAN-ELISA signal)” value in test [4] came to 96. Moreover, the “Binding of CRJB to linear peptide” value in test [5] is listed as 101. Moreover, the “Binding of CRJA to linear peptide” value in test [6] is 123.
Consider TIWMPENPRLGMSCD, for which the “Binding of CR57 (10 μg/ml) to looped/cyclic peptide (PEPSCAN-ELISA signal)” value in test [1] is listed as 97. Further, in test [2], the “Binding of CRJB (10 μg/ml) to looped/cyclic peptide (PEPSCAN-ELISA signal)” value is given as 82. Further, in test [3], the “Binding of CR57 to linear peptide” value is listed as 69. The “Binding of CRJA (10 μg/ml) to looped/cyclic peptide (PEPSCAN-ELISA signal)” value in test [4] is listed as 102. In addition, the “Binding of CRJB to linear peptide” value in test [5] turned out to be 106. For the same sequence, the “Binding of CRJA to linear peptide” value in test [6] was found to be 93.
